Experimental data taken from patent publication US20200331950A1, “SGLTS INHIBITOR AND APPLICATION THEREOF” (SHANDONG DANHONG PHARMACEUTICAL CO., LTD., priority 2018, published 2020).
Marks after values point to notes of the source that are not given here.

What was measured:
SD rats [1] = experiment: Oral glucose tolerance test (OGTT) in rats, first time; assay type: in vivo; conditions: first study, male SD rats, 10 mg/kg single intragastric administration
Description: Experimental Example 3. Study on In Vivo Efficacy of Oral Glucose Tolerance Test (OGTT) in Rats: Study on the In Vivo Efficacy of Oral Glucose Tolerance Test (OGTT) in Rats for the First Time
(§1) The experimental animals were allowed to adapt to the environment in the animal room for one week after they arrived.
(§2) The animals fasted in the metabolic cage for 18 hours, then were given drugs or vehicle (2 ml/kg) according to the above table, and subsequently were immediately given 50% glucose solution (2 g/kg, 4 ml/kg).
(§3) 2 hours after the administration of glucose solution, feed intake was restored. Blood samples were taken at 0 min, 15 min, 30 min, 45 min, 60 min and 120 min respectively, and urine samples were collected at 0-24 h to test blood glucose, urine glucose (mg/200 g) and urine volume respectively.
(§4) All values are represented as averages. Statistical analysis was performed using Graphpad Prism 6 one-way analysis of variance and Tukey's multiple comparison test. P value of less than 0.05 is considered statistically significant.

Human-SGLT2 = target: T1, Human-SGLT2 (Homo sapiens, UniProt P31639); experiment: SGLT2 glucose transport test ([14C]-labeled methyl a-D-glucopyranoside uptake); assay type: cell-based; conditions: cells stably expressing Human-SGLT2; 37° C., 2 hours
T1 sequence (P31639 1-672): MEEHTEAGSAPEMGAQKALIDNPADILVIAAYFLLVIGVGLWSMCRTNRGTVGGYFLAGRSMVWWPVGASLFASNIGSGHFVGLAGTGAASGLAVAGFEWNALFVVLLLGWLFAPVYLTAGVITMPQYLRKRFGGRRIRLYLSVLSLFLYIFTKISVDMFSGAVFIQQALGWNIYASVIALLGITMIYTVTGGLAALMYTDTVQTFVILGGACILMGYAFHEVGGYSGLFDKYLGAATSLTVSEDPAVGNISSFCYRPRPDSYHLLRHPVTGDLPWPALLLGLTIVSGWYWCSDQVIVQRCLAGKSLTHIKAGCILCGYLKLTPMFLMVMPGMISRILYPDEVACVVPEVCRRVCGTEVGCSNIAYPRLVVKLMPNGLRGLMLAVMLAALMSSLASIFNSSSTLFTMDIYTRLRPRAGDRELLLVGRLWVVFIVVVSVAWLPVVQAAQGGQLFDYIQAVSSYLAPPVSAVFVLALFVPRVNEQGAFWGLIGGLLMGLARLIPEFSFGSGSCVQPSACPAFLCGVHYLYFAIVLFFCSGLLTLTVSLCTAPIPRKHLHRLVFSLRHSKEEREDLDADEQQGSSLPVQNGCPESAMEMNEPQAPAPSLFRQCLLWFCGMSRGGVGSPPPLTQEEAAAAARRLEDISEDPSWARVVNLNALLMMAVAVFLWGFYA
Description: Biological Activity Experiment 2: SGLT2 Glucose Transport Test.
(§5) 1. Purpose of the Experiment:
The effect of the compound on the glucose transport activity of SGLT2 transporter was detected by measuring the amount of [^14C]-labeled glucose entering cells with high expression of Human-SGLT2.
The cells stably expressing Human-SGLT2 were constructed by Wuxi AppTec(Shanghai) Co., Ltd. SGLT2 cells were laid in 96-well cell culture plate (Greiner) and cultured overnight in 5% CO2 environment at 37° C.
2.2. SGLT2 Glucose Transport Test.
(§6) 1) Experimental buffer, including: 10 mM 4-hydroxyethylpiperazineethanesulfonic acid (HEPES), 1.2 mM magnesium chloride (MgCl2), 4.7 mM potassium chloride (KCl), 2.2 mM calcium chloride (CaCl2) and 120 mM sodium chloride (NaCl).
2) Stop buffer, including: 10 mM 4-hydroxyethylpiperazineethanesulfonic acid (HEPES), 1.2 mM magnesium chloride (MgCl2), 4.7 mM potassium chloride (KCl), 2.2 mM calcium chloride (CaCl2), 120 mM sodium chloride (NaCl) and 1 μM LX4211.
3) Compounds were serially diluted in 100% dimethyl sulfoxide (DMSO) starting at 10 uM and make a 5-folds, 8 points serials compound dilutions.
4) 6 μM [^14C]-labeled methyl a-D-lucopyranosid was prepared with the experimental buffer.
5) The cells were treated with 49 uL of the experimental buffer, 1 μL of the gradient diluted compound and 50 μL of the 6 μM [^14C]-labeled methyl a-D-lucopyranosid solution at 37° C. for 2 hours.
6) The solution was sucked out from holes, and the cells were rinsed with the stop buffer for 3 times.
7) The cells were lysed with 50 ul of 10% sodium hydroxide solution, the cell lysate was sucked into a scintillation tube, into which 2 mL scintillation solution was then added.
8) The data were read with an isotope detector Tricarb.
9) The IC50 value of the tested compound was obtained by the calculation formula: log(inhibitor) vs. response—Variable slope, using GraphPad Prism 5.0 software.

[2] = In vivo pharmacokinetics in rats; conditions: male SD rats
Excerpt: Study on the In Vivo Pharmacokinetics in Rats
The purpose of the experiment: Male SD rats were used as test animals and were given a single administration to determine the plasma concentration of the compound and evaluate the pharmacokinetic behavior.
Experimental method: Six healthy adult male SD rats were divided into 2 groups, with 3 rats in an intravenous injection group and 3 rats in an oral administration group. In the intravenous injection group, the test compound was mixed with an appropriate amount of vehicle (10% N-methyl pyrrolidone (NMP)/10% polyethylene glycol-15 hydroxystearate (available from solutol)/80% water), then vortexed and sonicated to prepare 0.2 mg/mL clear solution, which was filtered by microporous membrane. In the oral administration group, 10% N-methyl pyrrolidone (NMP)/10% polyethylene glycol-15 hydroxy stearate (available from solutol)/80% water was used as a vehicle and mixed with the test compound, then vortexed and sonicated to prepare 0.40 mg/mL clear solution. The rats were given intravenous administration at a dose of 1 mg/kg or oral administration at a dose of 2 mg/kg. Whole blood was collected at a certain period of time to prepare the plasma. The drug concentration of the plasma was analyzed by LC-MS/MS method, and the pharmacokinetic parameters were calculated using Phoenix WinNonlin software (Pharsight Company, USA).

SD rats [3] = experiment: Oral glucose tolerance test (OGTT) in rats, second time; assay type: in vivo; conditions: second study, male SD rats, 10 mg/kg single intragastric administration
Description: Study on the In Vivo Efficacy of Oral Glucose Tolerance Test (OGTT) in Rats for the Second Time:
as §1, §2, §3, §4

Human-SGLT1 = target: T2, Human-SGLT1 (Homo sapiens, UniProt P13866); experiment: SGLT1 glucose transport test ([14C]-labeled methyl a-D-glucopyranoside uptake); assay type: cell-based; conditions: cells stably expressing Human-SGLT1; 37° C., 2 hours
T2 sequence (P13866 1-664): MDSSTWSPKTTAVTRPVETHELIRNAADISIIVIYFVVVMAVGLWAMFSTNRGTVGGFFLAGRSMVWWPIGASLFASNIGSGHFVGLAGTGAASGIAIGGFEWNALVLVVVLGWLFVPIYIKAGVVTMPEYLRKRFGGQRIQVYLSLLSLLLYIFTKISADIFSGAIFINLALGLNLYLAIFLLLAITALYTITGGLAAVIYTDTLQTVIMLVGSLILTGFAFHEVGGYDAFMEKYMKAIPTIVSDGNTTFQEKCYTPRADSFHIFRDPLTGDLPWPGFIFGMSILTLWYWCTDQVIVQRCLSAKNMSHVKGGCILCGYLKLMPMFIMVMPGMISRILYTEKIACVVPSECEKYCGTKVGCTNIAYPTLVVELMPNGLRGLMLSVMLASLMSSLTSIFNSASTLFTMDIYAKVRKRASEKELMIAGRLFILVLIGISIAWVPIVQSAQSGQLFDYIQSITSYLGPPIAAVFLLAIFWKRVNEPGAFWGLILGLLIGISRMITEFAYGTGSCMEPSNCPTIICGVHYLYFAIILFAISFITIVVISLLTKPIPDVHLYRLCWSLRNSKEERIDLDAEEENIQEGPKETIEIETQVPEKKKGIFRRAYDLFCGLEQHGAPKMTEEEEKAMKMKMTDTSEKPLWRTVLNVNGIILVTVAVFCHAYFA
Excerpt: Biological Activity Experiment 1: SGLT1 Glucose Transport Test.
as §5
The effect of the compound on the glucose transport activity of SGLT1 transporter was detected by measuring the amount of [′C]-labeled glucose entering cells with high expression of Human-SGLT1.
The cells stably expressing Human-SGLT1 were constructed by Wuxi AppTec(Shanghai) Co., Ltd. SGLT1 cells were laid in Cytostar-T (PerkinElmer) 96-well cell culture plate and cultured overnight in 5% CO2 environment at 37° C.
2.2. SGLT1 Glucose Transport Test.
as §6
2) Compounds were serially diluted in 100% dimethyl sulfoxide (DMSO) starting at 1 mM and make a 5-folds, 8 points serials compound dilutions.
3) 3 μM [′^4C]-labeled methyl a-D-glucopyranoside was prepared with the experimental buffer.
4) The cells were treated with 49 uL of the experimental buffer, 1 μL of the gradient diluted compound and 50 μL of the 3 μM [^14C]-labeled methyl a-D-lucopyranosid solution at 37° C. for 2 hours.
5) The data were read with an isotope detector Micro beta Reader.
6) The IC50 value of the tested compound was obtained by the calculation formula: log(inhibitor) vs. response—Variable slope, using GraphPad Prism 5.0 software.

IC50 (Human-SGLT2) [nM] | IC50 (Human-SGLT1) [nM] | Structure (SMILES) | also measured
1.01 | 55.6 | CS[C@H]1O[C@@H](c2ccc(C)c(Cc3ccc(C4=CCC5(CC4)OCCO5)cc3)c2)[C@H](O)[C@@H](O)[C@@H]1O [WXD002] | –
1.49 | 14.1 | CS[C@H]1OC(c2ccc(C)c(Cc3ccc(C4=CCOCC4)cc3)c2)[C@H](O)[C@@H](O)[C@@H]1O (stereo partly drawn) [WXD004] | –
1.78 | 21.9 | CS[C@H]1OC(c2ccc(C)c(Cc3ccc(C4=CCCCC4)cc3)c2)[C@H](O)[C@@H](O)[C@@H]1O (stereo partly drawn) [WXD005] | –

Further lines, the molecule ahead of its results:

Structure (SMILES) | IC50 (Human-SGLT2) [nM] | IC50 (Human-SGLT1) [nM] | also measured
CCOc1ccc(Cc2cc([C@@H]3O[C@H](SC)[C@@H](O)[C@H](O)[C@H]3O)ccc2Cl)cc1 [Sotagliflozin, reference compound] | 1.15 | – | OGTT blood glucose level AUC0-2 hr (SD rats [1]; glucose 2 g/kg): 823 mmol/L/min; Urine glucose level (SD rats [1]; urine 0-24 h): 2424.0**** mg/200 g, BW; Urine volume (SD rats [1]; urine 0-24 h): 39.74**** mL/200 gBW; Oral DNAUC (AUCPO/Dose) ([2]; oral 2 mg/kg): 969 nM · h/mpk; clearance ([2]; rat, plasma, intravenous 1 mg/kg or oral 2 mg/kg, read-out: Cl (clearance rate)): 22.6 mL/min/kg; half-life ([2]; rat, plasma, intravenous 1 mg/kg or oral 2 mg/kg, read-out: T1/2 (half-life) (converted)): 1.27 h; Vd ([2]; rat, plasma, intravenous 1 mg/kg or oral 2 mg/kg, read-out: Vdss (distribution volume)): 2.01 L/kg; bioavailability ([2]; rat, plasma, intravenous 1 mg/kg, oral 2 mg/kg, read-out: F % (oral bioavailability)): 54.8%; Cmax ([2]; rat, single administration, intravenous 1 mg/kg or oral 2 mg/kg, plasma): 364 nM; OGTT blood glucose level AUC0-2 hr (SD rats [3]; glucose 2 g/kg): 790 mmol/L/min; Urine glucose level (SD rats [3]; urine 0-24 h): 2843.2**** mg/200 g, BW; Urine volume (SD rats [3]; urine 0-24 h): 26.4**** mL/200 g, BW
CS[C@H]1O[C@@H](c2ccc(C)c(Cc3ccc(C4=CCC(F)(F)CC4)s3)c2)[C@H](O)[C@@H](O)[C@@H]1O [WXD006] | 1.02 | 39.2 | –
CS[C@H]1O[C@@H](c2ccc(C)c(Cc3ccc(C4=CCOCC4)s3)c2)[C@H](O)[C@@H](O)[C@@H]1O [WXD007] | 1.35 | 30.1 | –
COc1ccc(C2O[C@H](SC)[C@@H](O)[C@H](O)[C@H]2O)cc1Cc1ccc(C2=CCC(F)(F)CC2)cc1 (stereo partly drawn) [WXD008] | 5.4 | 17.2 | –
CS[C@H]1OC(c2ccc(F)c(Cc3ccc(C4=CCC(F)(F)CC4)cc3)c2)[C@H](O)[C@@H](O)[C@@H]1O (stereo partly drawn) [WXD009] | 4.68 | 233 | –
